Measured values: publication PMC7956560, “New 3-Aryl-2-(2-thienyl)acrylonitriles with High Activity Against Hepatoma Cells” (International Journal of Molecular Sciences, 2021)

Assays:
[1] = tested on: HepG2-tumors grown on membranes of fertilized chicken eggs; assay: Chorioallantoic membrane (CAM) assay; type: in vivo
Method: The chorioallantoic membrane (CAM) assay was performed as described previously. Fertilized chicken eggs (Gallus gallus) were obtained from commercial sources (Valo GmbH, Germany) and incubated in a humid environment at 38 °C. On day 3 of the egg development, a window was cut in the eggshell to access the developing vascular network of the CAM. At day 10 of chicken embryo development, a sterile silicon ring (10 mm diameter) was placed on the CAM and tumor plugs of 3 × 10^6 HepG2 cells in 20 µL Matrigel (BD Biosciences) with reduced growth factors were placed inside the silicon ring. After 24 h at 38 °C in an incubator, the tumor plaques attached and connected to the (tumor-)feeding CAM microvasculature. Then, the tumor plaques were topically treated with either PBS (negative control) or PBS containing rising concentrations of 1b (0–10 µM), 1c (0–2.5 µM) or sorafenib (10 μM) for 3 days. Tumor growth and viability of the embryo were controlled daily by stereo microscopy. After 72 h of treatment, the tumors were recovered for weighing and pictures were taken using a stereomicroscope equipped with a Kappa digital camera system (Kappa Optronics GmbH, Germany). For data analysis, the tumor weight of 1c-treated and untreated control tumors was determined and the mean weight of treated vs. untreated tumors of 11 eggs for each condition was calculated. Statistical significance evaluated by one-way ANOVA tests.

HepG2 cells = assay: LDH release assay (unspecific cytotoxicity); type: cell-based, human; conditions: HepG2, 0.5 and 10 µM, 12 or 24 h
Method: Unspecific cytotoxicity induced by treatment with 0.5 µM and 10 µM of 1a, 1b, 1c and sorafenib (LC Laboratories, Woburn, MA, USA) was determined by measuring the release of lactate dehydrogenase (LDH) from HepG2 cells into the supernatant after 12 and 24 h (Cytotoxicity Detection KitPLUS LDH, Roche Diagnostics GmbH, Mannheim, Germany). The supernatant of treated samples was collected, and adherent non-treated cells were lysed with 2% Triton X-100 for 10 min to determine the maximum LDH release. All samples were mixed with catalyst and dye solution for 30 min, resulting in the formation of formazan dye proportional to LDH enzyme activity. The absorbance was measured at 490/630 nm using an ELISA reader (Dynex Technologies, Denkendorf, Germany) and cytotoxicity was determined by subtracting the percentage of LDH release under control conditions of those from treated samples. Experiments were performed in duplicate and data are given as mean percentage changes ± SD as compared to controls of n = 3 experiments.

For `COc1ccc(C=C(C#N)c2cccs2)cc1O` [Compound 1c, 2-[1-Cyano-2-(3-hydroxy-4-methoxyphenyl)-(E)-ethenyl)]-thiophene], the “tumor weight after treatment (in words)” value ([1]; extracted tumors after 3 days of treatment, 1c 0–2.5 µM) was “significant mass reduction”, the “tumor reduction vs PBS-treated controls (in words)” value ([1]; topical treatment 72 h, 1b 0–10 µM, 1c 0–2.5 µM, sorafenib 10 µM) was “pronounced tumor reductions” and the “tolerability, mortality and development of chicken embryos” value ([1]; treated vs untreated eggs) was “well tolerated”. The “LDH release / unspecific cytotoxicity (in words)” value (HepG2 cells) was “do not exert considerable unspecific cytotoxicity”.
